These results are taken from patent US5798365A, “Substituted quinoline derivatives, a process for their preparation, and their use” (Hoechst Aktiengesellschaft, priority 1994, dated 1998).

The subject of one assay is HIV. As to the kind of experiment: Testing preparations against HIV in cell culture (infected human donor lymphocytes). The format is cell-based. The note with it: HIV-infected lymphocytes, 3 days; for MIC: Human immunodeficiency virus 1, 72 h, lowest concentration without giant cells; for IC50: Human immunodeficiency virus 1, Lymphocyte, 72 h, read-out: IC-50. Here is the method:
Testing preparations against HIV in cell culture
Description of the method
The complete medium additionally contains 20% foetal calf serum and 40 IU/ml recombinant interleukin 2.
Lymphocytes which have been isolated from fresh donor blood by means of Ficoll® gradient centrifugation are cultured, at 37° C. for 36 h and under 5% CO2, in complete medium in the added presence of […] phytohemagglutinin (Wellcome). After the addition of 10% DMSO, the cells are frozen at a cell density of 5×10^6 and stored in liquid nitrogen. For the experiment, the cells are thawed, washed in RPMI medium and cultured for 3-4 days in complete medium.
The preparations for testing were dissolved in DMSO at a concentration of 16.7 mg/ml and diluted to 1 mg/ml in complete medium. 0.4 ml of medium was initially introduced in 24-well multiwell plates. After 0.1 ml of the dissolved preparation had been added to the upper row of the plate, a geometrical dilution series was produced by transferring 0.1 ml on each occasion. Preparation-free controls always contained 0.4 ml of complete medium containing 0.5% DMSO.
Lymphocyte cultures having a cell count of 5×10^5 cells/ml were infected by adding a 1/50 volume of the supernatant from lymphocyte cultures infected with HIV. The titer of these culture supernatants was determined, by end point dilution, to be 1-5×10^6 infectious units/ml. After incubating at 37° C. for 30 min, the infected lymphocytes were centrifuged off and taken up once again in the same volume of medium. 0.6 ml of this cell suspension was added to each of the wells in the test plate. The assay mixtures were incubated at 37° C. for 3 days.
The infected cell cultures were examined under the microscope for the presence of giant cells, which indicate that the virus is multiplying actively in the culture. The lowest preparation concentration at which no giant cells appeared was defined as the inhibitory concentration against HIV (MIC value). As a control, the presence of HIV antigen in the supernatants from the culture plates was determined using a test for HIV antigen in accordance with the manufacturer's (Organon) instructions.

In assay [1] the target is T1, HIV reverse transcriptase (Human immunodeficiency virus type 1 group M subtype B, UniProt P04585).
T1 construct: purchased HT-Biotechnology LTD, Cambridge, UK; host or cells: E. coli
As to the kind of experiment: Inhibition of HIV reverse transcriptase, scintillation proximity assay (SPA). The class given is biochemical. The following applies: RT-SPA, 60 min, 37° C., read-out: Reverse Transcriptase Asaay IC-50 (converted). Here is the method: Investigation of the ability of the substances to inhibit the HIV reverse transcriptase
The activity of the reverse transcriptase (RT) was measured by means of a scintillation proximity assay (SPA).
The reagent kit for the RT-SPA was obtained from Amersham/Buchler (Braunschweig). The RT enzyme (originating from HIV and cloned in E. coli) was provided by HT-Biotechnology LTD, Cambridge, UK.
The test was carried out in accordance with the supplier's (Amersham) methods manual--with the following modifications:
bovine serum albumin was added to the assay buffer to a final concentration of 0.5 mg/ml.
The test was carried out in Eppendorf reaction tubes using a mixture volume of […].
The supplier's RT concentrate (5000 U/ml) was diluted in 20 mM tris-HCl buffer; pH 7.2; 30% glycerol to an activity of 15 U/ml.
The assay mixtures were incubated for 60 min (at 37° C.).
After the reaction had been stopped and "developed" using the bead suspension, […] of assay mixture was transferred into 4.5 ml of 10 mM tris-HCl buffer; pH 7.4; 0.15M NaCl
and the tritium activity was measured in a β counter.
In order to carry out a preliminary test for inhibitor activity, the substances were dissolved in DMSO (stock solution concentration=1 mg/ml) and tested at 10^-1, 10^-2, 10^-3, etc. dilutions in DMSO.
In order to determine the IC50 values, the stock solutions of inhibitor were further diluted in 50 mM tris-HCl buffer, pH 8, and tested at suitable concentrations.
The concentration giving rise to 50% inhibition of the enzyme was ascertained from the graphic depiction of RT activity versus log Cinh.

Values after ≈ are worked out from the molar mass of the structure shown. Like-named read-outs stand apart in the source and are kept apart here.

`CCCC=C1c2cc(OC)ccc2NC(=S)C1(C)C` [Compound 42, E/Z-4-n-butylene-3,4-dihydro-3,3-dimethyl-6-methoxyquinolin-2(1H)-thione] returned an MIC in the assay on HIV (37° C.) of less than 8 ng/mL. In addition, the IC50 in the assay on HIV (37° C.) was 2 ng/mL (≈ 0.00726 µM); in assay [1] (molar value in parentheses), 9 nM; in assay [1] it was 9.44 nM.

Compound `CCC=C1c2ccccc2NC(=S)C1(CC)CC` [Compound 51] gave an MIC in the assay on HIV (37° C.) of 20 ng/mL (≈ 0.0771 µM). The IC50 is approximately 2 ng/mL (≈ 0.00771 µM) with HIV (37° C.), 23 nM in assay [1] (molar value in parentheses) and 23.1 nM in assay [1].

`CCCC=C1c2cc(Cl)ccc2NC(=O)C1(C)C` [Compound 2, 4-n-Butylene-6-chloro-3,4-dihydro-3,3-dimethylquinolin-2(1H)-one] registered an MIC against HIV (37° C.) of 100 ng/mL (≈ 0.379 µM). Moreover, the figures for the IC50 (in the assay with HIV (37° C.); in assay [1] (molar value in parentheses); in assay [1]) were approximately 15 ng/mL (≈ 0.0569 µM), 63 nM and 64.5 nM, respectively.

Consider `COc1ccc2c(c1)C(=CCC(C)C)C(C)(C)C(=O)N2` [Compound 66], for which the MIC against HIV (37° C.) was less than 100 ng/mL. Moreover, the IC50 in the assay on HIV (unit as printed for compound 66) is approximately 10 ng/mL (≈ 0.0366 µM); in assay [1] (molar value in parentheses), 70 nM; in assay [1] it was 69.5 nM.

On to `CC(C)CC=C1c2ccccc2NC(=S)C12CCCC2` [Compound 70], for which the MIC in the assay with HIV (37° C.) was 20 ng/mL (≈ 0.0701 µM). Moreover, the IC50 in the assay on HIV (37° C.) is approximately 3 ng/mL (≈ 0.0105 µM); in assay [1] (molar value in parentheses), 21 nM; in assay [1], 21 nM.

On to `CC(C)CC=C1c2cc(Cl)ccc2NC(=S)C1(C)C` [Compound 20], for which the MIC against HIV (37° C.) is less than 8 ng/mL. For the same compound, the IC50 with HIV (37° C.) is 1.5 ng/mL (≈ 0.0051 µM); in assay [1] (molar value in parentheses), 22 nM; in assay [1], 21.4 nM.

As for `CCC1(CC)C(=S)Nc2ccccc2C1=CCC(C)C` [Compound 53], in the assay with HIV (37° C.), the MIC is 20 ng/mL (≈ 0.0696 µM). Besides, the IC50 in the assay with HIV (37° C.) is approximately 2 ng/mL (≈ 0.00696 µM); in assay [1] (molar value in parentheses) it was 44 nM; in assay [1], 45.2 nM.

`CCC=C1c2cc(Cl)ccc2NC(=O)C1(C)C` [Compound 3]: in the assay with HIV (37° C.), the MIC is less than 80 ng/mL and the IC50 came out at 30 ng/mL (≈ 0.12 µM). For the same compound, the IC50 in assay [1] is 108 nM.

With `COc1ccc2c(c1)C(=C1CCCC1)C(C)(C)C(=S)N2` [Compound 140], in the assay with HIV (37° C.), the MIC worked out at 200 ng/mL (≈ 0.696 µM) and the IC50 amounted to 6 ng/mL (≈ 0.0209 µM). Further, the IC50 in assay [1] is 17.4 nM.

As for `CCC1(CC)C(=O)Nc2ccccc2C1=CCC(C)C` [Compound 52], the MIC against HIV (37° C.) came to 20 ng/mL (≈ 0.0737 µM). Besides, the figures for the IC50 (in the assay on HIV (37° C.); in assay [1] (molar value in parentheses); in assay [1]) were approximately 4 ng/mL (≈ 0.0147 µM), 43 nM and 44.2 nM, respectively.

As for `CCCC=C1c2ccccc2NC(=S)C12CCC2` [Compound 7], in the assay with HIV (37° C.), the MIC was less than 8 ng/mL. In addition, the IC50 with HIV (37° C.) is approximately 0.32 ng/mL (≈ 0.00124 µM); in assay [1] (molar value in parentheses), 18 nM; in assay [1], 19.4 nM.

On to `CC(C)CC=C1c2cc(Cl)ccc2NC(=O)C1(C)C` [Compound 19], for which the IC50 is 8 ng/mL (≈ 0.0288 µM) in the assay with HIV (37° C.), 37 nM in assay [1] (molar value in parentheses) and 37.1 nM in assay [1].

`CC(C)C=C1c2cc(Cl)ccc2NC(=S)C1(C)C` [Compound 18] had an MIC against HIV (37° C.) of less than 8 ng/mL. The IC50 in the assay with HIV (37° C.) is 2 ng/mL (≈ 0.00715 µM); in assay [1] (first value of compound 18, unit as printed), 54.3 nM; in assay [1] (molar value in parentheses), 55 nM.

Consider `CCC=C1c2cc(Cl)ccc2NC(=S)C1(C)C` [Compound 4], for which the MIC against HIV (37° C.) was 1.6 ng/mL (≈ 0.00602 µM). In addition, the IC50 was less than 0.32 ng/mL with HIV (37° C.), 8 nM in assay [1] (molar value in parentheses) and 7.52 nM in assay [1].

Take `CCCC=C1c2ccccc2NC(=S)C1(CC)CC` [Compound 49]: the MIC against HIV (37° C.) was less than 20 ng/mL. Further, the IC50 was approximately 2 ng/mL (≈ 0.00731 µM) in the assay on HIV (37° C.), 24 nM in assay [1] (molar value in parentheses) and 25.6 nM in assay [1].

In the assay with HIV (37° C.), `CCC=C1c2cc(OC)ccc2NC(=S)C1(C)C` [Compound 45] had an MIC of 4 ng/mL (≈ 0.0153 µM). Moreover, the IC50 with HIV (37° C.) is 2 ng/mL (≈ 0.00765 µM); in assay [1] (molar value in parentheses) it was 9 nM; in assay [1] it was 9.18 nM.

With `CCOC(=O)/C=C1\c2cc(Cl)ccc2NC(=S)C1(C)C` [Compound 142], in the assay on HIV (37° C.), the MIC is less than 200 ng/mL and the IC50 stood at 4 ng/mL (≈ 0.0129 µM). In addition, the IC50 in assay [1] was 123 nM.

In the assay with HIV (37° C.), `CCOc1ccc2c(c1)C(=CCC(C)C)C(C)(C)C(=S)N2` [Compound 59] yielded an MIC of less than 20 ng/mL. Besides, the IC50 in the assay with HIV (37° C.) was approximately 8 ng/mL (≈ 0.0264 µM); in assay [1] (molar value in parentheses) it was 46 nM; in assay [1] (unit as printed for compound 59), 46.1 nM.

With `CCCC=C1c2ccccc2NC(=O)C1(CC)CC` [Compound 48], the MIC against HIV (37° C.) is less than 80 ng/mL. The IC50 is approximately 10 ng/mL (≈ 0.0389 µM) in the assay on HIV (37° C.), 54 nM in assay [1] (molar value in parentheses) and 54.4 nM in assay [1].
